Drawing on PubChem BioAssay (NCI), this text covers TGI and GI50 for 18 compounds.

Among the test systems are HOP-18 NSCLC; DLD-1 colon; XF 498 CNS; KM20L2 colon; M19-MEL melanoma; DMS 273 small cell lung; LXFL 529 NSCLC; RXF-631 renal; MDA-N.
What all share (experiment): NCI tumour cell line growth inhibition, 48 h

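Values below derive from 48-hour exposures of cells grown in 96-well plates, with endpoints linearly interpolated between the two concentrations bracketing the appropriate inhibition level. GI50 marks 50% less growth. TGI: total growth inhibition.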

As to `CC1CCCc2c1c1ccc3c(O)cccc3c1oc2=O` (centres undefined), the TGI in the assay with HOP-18 NSCLC, in the assay on DLD-1 colon, with XF 498 CNS, with KM20L2 colon, with M19-MEL melanoma and with DMS 273 small cell lung was over 100 µM throughout. Moreover, the TGI in the assay with LXFL 529 NSCLC is over 100 µM.
For `S=c1sc2cscc2s1`, the TGI turned out to be 67.2 µM in the assay on HOP-18 NSCLC; 50.6 µM with DLD-1 colon; 61 µM in the assay on RXF-631 renal; 49.9 µM in the assay with XF 498 CNS; 66.5 µM with KM20L2 colon; 34.3 µM in the assay with M19-MEL melanoma. Further, the TGI is over 100 µM in the assay with DMS 273 small cell lung and 38.6 µM in the assay on LXFL 529 NSCLC.
For `CC(=O)[O-].[Zn].c1ccc(/C(=N\Nc2ccccn2)c2ccccn2)cc1`, the TGI with HOP-18 NSCLC stood at 0.918 µM; in the assay with DLD-1 colon it was 2.49 µM; in the assay on KM20L2 colon, 1.75 µM; in the assay with M19-MEL melanoma, 1.89 µM; with DMS 273 small cell lung, 1.88 µM; with LXFL 529 NSCLC it was 1.79 µM.
Turning to `O=C(NC1C2CC3CC(C2)CC1C3)/C(Cl)=C1/Sc2ccccc2NC1=O` (centres undefined), the TGI in the assay with HOP-18 NSCLC, in the assay with DLD-1 colon, with XF 498 CNS, in the assay with KM20L2 colon, with M19-MEL melanoma and in the assay with DMS 273 small cell lung was over 100 µM throughout. Besides, the TGI in the assay on LXFL 529 NSCLC was over 100 µM.
With `OCC(O)C(O)C(O)c1nn(-c2ccccc2)c2nc3cc(Cl)c(Cl)cc3nc12` (centres undefined), the TGI in the assay with HOP-18 NSCLC is over 100 µM; in the assay with DLD-1 colon it was over 100 µM; with XF 498 CNS, 69.3 µM; in the assay on KM20L2 colon, over 100 µM; with M19-MEL melanoma, over 100 µM; in the assay with DMS 273 small cell lung, over 100 µM. In the assay on LXFL 529 NSCLC, this compound had a TGI of over 100 µM.
For `C=C1CCCC2[C@](C)(CC3=C(O)C(=O)C=C(OC)C3=O)[C@@H](C)CC[C@]12C` (some centres undefined), the TGI in the assay on HOP-18 NSCLC was 8.59 µM; with DLD-1 colon, 69.1 µM; with RXF-631 renal it was over 100 µM; with XF 498 CNS, 56.7 µM; with KM20L2 colon, 31.8 µM; in the assay on M19-MEL melanoma, 5.95 µM. For the same compound, the TGI with LXFL 529 NSCLC is 27.2 µM.
As for `O=C(CNc1ccc2c(=S)c3ccccc3[nH]c2c1)Nc1ccccc1-c1ccccc1NC(=O)CNc1ccc2c(=S)c3ccccc3[nH]c2c1`, the TGI was 29.9 µM with HOP-18 NSCLC; 23.9 µM in the assay on DLD-1 colon; 41.1 µM in the assay on XF 498 CNS; 47.4 µM with KM20L2 colon; over 51.3 µM with MDA-N; over 55.5 µM in the assay with M19-MEL melanoma. Further, the TGI is over 76.3 µM in the assay on DMS 273 small cell lung and 24.6 µM with LXFL 529 NSCLC.
For `CC(=O)/C=C1\CC(=O)Nc2ccccc2N1`, the TGI with DLD-1 colon, in the assay on KM20L2 colon and with LXFL 529 NSCLC was over 100 µM throughout.
For `CC(=O)OC1CCC2C(=CCC3C2(C)C(=O)CC2(C)C(C4(C)OC(C(C)C)=CC4=O)C(O)CC32C)C1(C)C` (centres undefined), the TGI was over 100 µM in the assay with DLD-1 colon; over 100 µM with XF 498 CNS; 51.4 µM in the assay on KM20L2 colon; 47.7 µM in the assay on M19-MEL melanoma; 58.3 µM in the assay on DMS 273 small cell lung; 92.1 µM with LXFL 529 NSCLC.
As for `OCC(CCc1c[nH]c2ccccc12)c1c[nH]c2ccccc12` (centres undefined), the TGI in the assay on MDA-N amounted to 31 µM.
As for `O=C(O)c1ccccc1N=Nc1ccc2oc(=O)c(C(=O)Nc3ccccc3)cc2c1`, the TGI was over 100 µM in the assay on HOP-18 NSCLC; over 100 µM in the assay with DLD-1 colon; over 100 µM in the assay on XF 498 CNS; 83.9 µM in the assay with KM20L2 colon; over 100 µM with M19-MEL melanoma; over 100 µM in the assay on DMS 273 small cell lung.
Consider `CC(C)C(=O)[O-].CC(C)C(=O)[O-].N.N.N.N.[Co+3].[O-][Cl+3]([O-])([O-])[O-]`, for which the GI50 in the assay with DLD-1 colon, with KM20L2 colon, with DMS 273 small cell lung and in the assay with LXFL 529 NSCLC was over 100 µM in each case. For the same compound, the TGI in the assay on DLD-1 colon, in the assay with KM20L2 colon, in the assay with DMS 273 small cell lung and in the assay on LXFL 529 NSCLC was over 100 µM throughout.
Regarding `CCc1ccc2nccc(NCCCN(C)C)c2c1[N+](=O)[O-]`, the TGI in the assay on MDA-N is over 100 µM.
On the same count and under the same terms, for `c1ccc(B2OCC(C3OB(c4ccccc4)OC4COB(c5ccccc5)OC43)O2)cc1` (centres undefined) the value was over 100 µM.
Consider `CCOC(=O)C(C)(C)Oc1ccc2c(-c3ccc(Cl)cc3)c(-c3ccc(Cl)cc3)c(=O)oc2c1`, for which the TGI in the assay on DLD-1 colon, in the assay with RXF-631 renal, with KM20L2 colon, in the assay with M19-MEL melanoma, in the assay with DMS 273 small cell lung and in the assay on LXFL 529 NSCLC was over 100 µM each time.
As to `CCN(CC)c1ccc(N=C2C=C(Cl)C(=O)c3ncccc32)c(C)c1`, the TGI in the assay on HOP-18 NSCLC is 9.75 µM; in the assay with DLD-1 colon, 17 µM; with RXF-631 renal, 35.3 µM; in the assay on XF 498 CNS it was 18.7 µM; in the assay with KM20L2 colon, 26.9 µM; with M19-MEL melanoma, 68.5 µM. The TGI in the assay on DMS 273 small cell lung turned out to be 16.8 µM.
Regarding `CC(NC(=O)C(=O)N/N=C1\C[C@@H](c2ccccc2)Nc2ccccc21)c1ccccc1` (some centres undefined), the TGI in the assay with DLD-1 colon, in the assay with XF 498 CNS, in the assay on KM20L2 colon, in the assay on M19-MEL melanoma, with DMS 273 small cell lung and in the assay on LXFL 529 NSCLC was over 100 µM throughout.
Consider `CCOC(=O)c1ccc(N2C(=O)Cc3ccccc3C2=O)cc1`, for which the TGI in the assay on KM20L2 colon, in the assay with M19-MEL melanoma, in the assay on DMS 273 small cell lung and with LXFL 529 NSCLC was over 100 µM in each case.
